Reference: patent publication US20050065140A1, “Serotonine reuptake inhibitor” (priority 2001, published 2005)

Legend:
[1] = molecular target: T1, [^3H]paroxetine binding (serotonin reuptake), cerebral cortex membrane preparation (Rattus norvegicus, UniProt P31652); test: Screening test using [^3H]paroxetine binding (Test Example 1); conditions: [^3H]paroxetine 0.15 nM, test concentration not given
T1 construct: 790 μl of the cerebral cortex membrane preparation (150 μg/tube in terms of protein); from tissue; host or cells: rat cerebral cortex membrane preparation
T1 sequence (P31652 whole entry): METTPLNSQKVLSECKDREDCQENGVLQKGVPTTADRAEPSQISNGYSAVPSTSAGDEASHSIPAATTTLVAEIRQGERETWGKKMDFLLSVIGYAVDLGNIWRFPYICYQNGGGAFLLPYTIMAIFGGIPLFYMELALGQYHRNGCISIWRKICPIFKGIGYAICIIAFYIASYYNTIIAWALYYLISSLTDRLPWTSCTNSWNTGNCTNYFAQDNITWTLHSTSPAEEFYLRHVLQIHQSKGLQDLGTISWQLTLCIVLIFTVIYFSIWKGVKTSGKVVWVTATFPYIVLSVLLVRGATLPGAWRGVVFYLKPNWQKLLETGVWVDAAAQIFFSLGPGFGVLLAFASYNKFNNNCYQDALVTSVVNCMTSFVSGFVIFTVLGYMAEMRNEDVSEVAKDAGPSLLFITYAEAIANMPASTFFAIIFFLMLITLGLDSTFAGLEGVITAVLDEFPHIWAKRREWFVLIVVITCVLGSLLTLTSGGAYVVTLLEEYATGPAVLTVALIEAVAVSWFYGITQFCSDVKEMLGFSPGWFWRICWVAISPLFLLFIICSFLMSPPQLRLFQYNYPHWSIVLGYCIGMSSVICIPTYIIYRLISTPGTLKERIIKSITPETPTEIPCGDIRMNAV
Method: Screening Test Using [^3H]Paroxetine Binding
The membrane preparation was prepared according to the method^1a) of D'amato et al. In detail, after a male rat was decapitated, the whole brain was immediately removed and the cerebral cortex was dissected therefrom under ice-cooling. A buffer solution (50 mM Tris-HCl (pH=7.4), 120 mM NaCl, 5 mM KCl) was added to the cerebral cortex in an amount of 25 times the wet weight of the cerebral cortex, followed by homogenization in an ice bath by the use of a Teflon-glass homogenizer. The homogenate was centrifuged at 4° C. and 45,000×g for 10 minutes, and the resulting precipitate was dispersed in an ice-cooled buffer solution (50 mM Tris-HCl (pH=7.4), 120 mM NaCl, 5 mM KCl) by the use of Hiscotron™, followed by centrifugation at 4° C. and 45,000×g for 10 minutes. The resulting precipitate was re-suspended and the washing procedure was repeated. The membrane preparation thus obtained was suspended in the same buffer solution as described above, and then subjected to cryopreservation at −80° C.
[^3H]paroxetine binding was measured according to the method^1b) of Habert E et al. In detail, 200 μl of a dilution (final concentration: 0.15 nM) of [^3H]paroxetine with 50 mM Tris-HCl (pH=7.4) buffer containing 120 mM NaCl and 5 mM KCl, 790 μl of the cerebral cortex membrane preparation (150 μg/tube in terms of protein), 10 μl of a solution of a test drug in dimethyl sulfoxide and 1 ml of the above-mentioned buffer solution were mixed to prepare a liquid having a total volume of 2 ml. After this liquid was allowed to react at room temperature for 60 minutes, it was immediately filtered by suction at a low pressure through glass fiber filter. The glass fiber filter was washed 4 times with 4 ml of the same buffer solution as above and then transferred to a glass vial containing 4 ml of ACS-II (Amersham), and the radioactivity remaining on the filter was measured with a liquid scintillation counter.
Non-specific binding of [^3H]paroxetine was defined as the amount of [^3H]paroxetine bound in the presence of 100 μM 5-HT.
(§1) Rate of binding inhibition was calculated by the following equation:
(§2) Rate of binding inhibition (%)=100−100×{[amount of [^3H]paroxetine bound in the presence of test substance]−[amount of [^3H]paroxetine bound in the presence of 100 μM 5-HT]/[amount of [^3H]paroxetine bound in the absence of test substance]−[amount of [^3H]paroxetine bound in the presence of 100 μM 5-HT]}

[2] = molecular target: T2, serotonin 1A receptors ([^3H]8-OH-DPAT binding, hippocampus membrane preparation) (Rattus norvegicus, UniProt P19327); test: [^3H]8-OH-DPAT binding test (Test Example 2); conditions: [^3H]8-OH-DPAT 2 nM, test concentration not given
T2 construct: 146 μl of the hippocampus membrane preparation (80 μg/tube in terms of protein); from tissue; host or cells: rat hippocampus membrane preparation
T2 sequence (P19327 1-422): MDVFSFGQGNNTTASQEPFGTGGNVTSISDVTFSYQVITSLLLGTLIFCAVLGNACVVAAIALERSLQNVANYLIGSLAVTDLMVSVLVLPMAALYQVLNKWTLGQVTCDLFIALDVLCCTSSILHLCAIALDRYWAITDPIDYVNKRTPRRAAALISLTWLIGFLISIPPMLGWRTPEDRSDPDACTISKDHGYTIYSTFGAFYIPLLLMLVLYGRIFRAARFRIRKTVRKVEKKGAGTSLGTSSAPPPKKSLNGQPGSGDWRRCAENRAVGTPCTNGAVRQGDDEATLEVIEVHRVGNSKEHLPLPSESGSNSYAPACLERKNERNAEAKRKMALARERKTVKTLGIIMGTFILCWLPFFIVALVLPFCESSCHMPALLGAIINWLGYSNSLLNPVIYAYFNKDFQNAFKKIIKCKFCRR
Method: [^3H]8-OH-DPAT Binding Test
The test was carried out according to the method^2 of Hall M. D. et al. After about one week of pre-breeding, a male rat was decapitated and the brain was immediately removed. The hippocampus was dissected from the brain on ice, and 50 mM Tris-HCl (pH=7.4) was added to the hippocampus in an amount of 40 times the wet weight of the hippocampus, followed by homogenization (3 min, 1 stroke/min) in an ice bath by the use of a Teflon-glass homogenizer. Then, the homogenate was centrifuged (4° C.) at 40,000×g for 10 minutes. The resulting precipitate was dispersed in an ice-cooled buffer solution (50 mM Tris-HCl (pH=7.4)) by the use of Hiscotron™, followed by centrifugation (4° C.) at 40,000×g for 10 minutes. Moreover, the resulting precipitate was re-suspended and the washing procedure was repeated once. The precipitate thus obtained was dispersed in an ice-cooled buffer solution (50 mM Tris-HCl (pH=7.4)) by the use of Hiscotron™, and the resulting dispersion was incubated at 37° C. for 1 hour and then centrifuged (4° C.) at 40,000×g for 10 minutes. Furthermore, the resulting precipitate was re-suspended and the washing procedure was repeated once. The membrane preparation thus obtained was suspended in the same buffer solution as described above, and then subjected to cryopreservation at −80° C.
Measurement was carried out by using a liquid for reaction (total volume: 200 μl) obtained by adding 50 μl of [^3H]8-OH-DPAT (final concentration: 2 nM), 4 μl of a solution of a test drug and 146 μl of the hippocampus membrane preparation (80 μg/tube in terms of protein) to a buffer solution containing 50 mM Tris-HCl (pH=7.4) and 4 mM CaCl2. After the liquid for reaction was allowed to react at room temperature for 30 minutes, it was immediately filtered by suction at a low pressure through glass fiber filter. The glass fiber filter was washed twice with 250 μl of a buffer solution and then added to a glass vial containing 4 ml of ACS-II (Amersham), and the radioactivity bound to receptors and remaining on the filter was measured with a liquid scintillation counter. Non-specific binding of [^3H]8-OH-DPAT was defined as the amount of [^3H]8-OH-DPAT bound in the presence of 1 μM 8-OH-DPAT.
as §1
as §2, with “of [^3H]8-OH-DPAT” for “of [^3H]paroxetine”, “of 1” for “of 100”, “μM 8-OH-DPAT]/[amount” for “μM 5-HT]/[amount”, “μM 8-OH-DPAT]}” for “μM 5-HT]}”

SMILES | melting point [°C] | Rate of inhibition of [^3H]paroxetine binding (%) [1] [%] | Rate of inhibition of [^3H]8-OH-DPAT binding (%) [2] [%]
COc1ccc(Br)c(CC2CCN(CCC[C@H]3CC[C@@H](N)CC3)CC2)c1.Cl.Cl | 238 | – | –
CCN[C@H]1CC[C@H](CCN2CCC(Cc3cc(OC(C)C)ccc3Br)CC2)CC1.Cl.Cl | 290 | – | –
CCN[C@H]1CC[C@@H](CCCN2CCC(Cc3cc(OC)ccc3Br)CC2)CC1.Cl.Cl | 234 | – | –
CO[C@H]1CC[C@@H](CCCN2CCC(Cc3cc(OC(C)C)ccc3Br)CC2)CC1.Cl | 134 | – | –
COCC(=O)N[C@H]1CC[C@H](CCN2CCC(Cc3cc(OC)ccc3Br)CC2)CC1.Cl | 132 | – | –
CCN(CC)[C@H]1CC[C@H](CCN2CCC(Cc3cc(OC)ccc3Br)CC2)CC1.Cl.Cl | 242 | – | –
CCN(CC)[C@H]1CC[C@H](CCN2CCC(Cc3cc(OC(C)C)ccc3Br)CC2)CC1.Cl.Cl | 253 | – | –
CCN(CC(F)(F)F)[C@H]1CC[C@H](CCN2CCC(Cc3cc(OC)ccc3Br)CC2)CC1.Cl.Cl | 209 | – | –
CCN(CCO)[C@H]1CC[C@H](CCN2CCC(Cc3cc(OC)ccc3Br)CC2)CC1.Cl.Cl | 259 | – | –
COc1ccc(Br)c(CC2CCN(CCC3(CCO)CCCC3)CC2)c1.Cl | 184 | – | –
COc1ccc(Br)c(CC2CCN(CC[C@H]3CC[C@@H](CO)CC3)CC2)c1.Cl | 209 | – | –
CCOc1ccc(Br)c(CC2CCN(CC3CCc4ccccc4N3)CC2)c1.Cl.Cl (stereo not drawn) | 228 | – | –
Cl.Cl.Fc1ccc(Br)c(CC2CCN(CC3CCc4ccccc4N3)CC2)c1 (stereo not drawn) | 245 | – | –
COc1ccc(Br)c(CC2CCN(CCC3CCNCC3)CC2)c1.Cl.Cl [Example 1, 4-(2-Bromo-5-methoxybenzyl)-1-(2-(4-piperidinyl)ethyl)piperidine Dihydrochloride] | – | 81 | 47
CCNC(=O)N1CCC(CCN2CCC(Cc3cc(OC)ccc3Br)CC2)CC1.Cl [Example 32] | – | 97 | 73
CCN[C@H]1CC[C@@H](CCN2CCC(Cc3cc(OC(C)C)ccc3Br)CC2)CC1.Cl.Cl [Example 41, cis-N-(4-(2-(4-(2-bromo-5-isopropoxybenzyl)-piperidin-1-yl)ethyl)cyclohexyl)-N-ethylamine Dihydrochloride] | 247 | 78 | 86
CCN(C(C)=O)[C@H]1CC[C@H](CCN2CCC(Cc3cc(OC(C)C)ccc3Br)CC2)CC1.Cl [Example 52, trans-N-(4-(2-(4-(2-bromo-5-isopropoxy-benzyl)piperidin-1-yl)ethyl)cyclohexyl)-N-ethylacetamide Hydrochloride] | – | 90 | 60
COc1ccc(Br)c(CC2CCN(CCC3(CCO)CCCCC3)CC2)c1.Cl [Example 60, 2-(1-(2-(4-(2-Bromo-5-methoxybenzyl)-piperidin-1-yl)ethyl)cyclohexyl)ethanol Hydrochloride] | – | 91 | 98
COc1ccc(Br)c(CC2CCN(CC[C@H]3CC[C@@H](CCO)CC3)CC2)c1.Cl [Example 63] | 172 | – | –
COc1ccc(N2CC(CN3CCC(Cc4cc(OC)ccc4Br)CC3)OC2=O)cc1.Cl (stereo not drawn) [Example 72, 5-(4-(2-Bromo-5-methoxybenzyl)piperidin-1-yl)methyl-3-(4-methoxyphenyl)oxazolidin-2-one hydrochloride] | – | 99 | 97
